# Laboratory results taken from patent US11814407B2, “Multiple coupling and oxidation method” (Roche Innovation Center Copenhagen A/S, priority 2017, dated 2023).
# “Also recorded” adds a separate entry of the source.
# How the values were obtained:
# [1] = Solubility of oxazaphospholidine phosphoramidite monomers in solvent, visual examination; format: physicochemical; details: for Solubility over 24 hours in MeCN with addition of pyridine: MeCN + 2.5% pyridine; for Solubility after 24 hours in MeCN: MeCN alone
# Method: To a 1.5 mL vial was added 0.013 mmol of amidite after which the solid material was dissolved in 0.13 mL of solvent. Hereafter, the vial was capped, vortexed, and finally left at room temperature for 24 hours. Then, the dissolved material was visually examined regarding the solubility (FIG. 1). If the solution appeared cloudy or otherwise non-homogenous the solubility was set to “no”. If the solution appeared completely homogenous the solubility was set to “yes” (examination repeated after 24 hours).
# Solubility of the following monomers was determined as per example 7.
# [2] = Stability of amidite solutions by HPLC-MS (UV 254 nm, normalised to 0 hours); format: physicochemical
# Method: Stability Determination Method: To complete the analysis the stability of the amidite was investigated using an Agilent 1100 series HPLC-MS with a gradient from 80% A (1% NH4OH in H2O) to 100% B (20% A in MeCN) and a Waters Xterra MS C18 2.1×100 mm column. The mass and UV peak of the mother compound was identified at 0 hours and at 24 hours. Hereafter, the relative stability compared to other by-products was reported by integrating the UV chromatogram (254 nm) and normalizing the area to the chromatogram recorded at 0 hours (FIG. 2).
# To a 1.5 mL vial was added 0.013 mmol of amidite after which the solid material was dissolved in 0.13 mL of solvent (with and without Et3N, approximately 5-10 eq). Hereafter, the vial was capped, vortexed, and finally left at room temperature for 24 hours. To investigate the stability of the amidite an Agilent 1100 series HPLC-MS with a gradient from 80% A (1% NH4OH in H2O) to 100% B (20% A in MeCN) and a Waters Xterra MS C18 2.1×100 mm column was used. The mass and UV peak of the mother compound was identified at 0 hours and at 24 hours. Hereafter, the relative stability compared to other by-products was reported. This was again repeated after 48 hours.
structure (smiles),measurement,setting,value
COc1ccc(C(OCC2OC(n3cnc4c(NC(=O)c5ccccc5)ncnc43)CC2OP2OC(c3ccccc3)C3CCCN32)(c2ccccc2)c2ccc(OC)cc2)cc1 [D-DNA A],Solubility over 24 hours in MeCN with addition of pyridine,[1],the solubility of the monomer is preserved
same,Solubility after 24 hours in MeCN,[1],not soluble
COc1ccc(C(OCC23COC(C(n4cnc5c(NC(=O)c6ccccc6)ncnc54)O2)C3OP2OC(c3ccccc3)C3CCCN32)(c2ccccc2)c2ccc(OC)cc2)cc1 [D-LNA A],Solubility over 24 hours in MeCN with addition of pyridine,[1],the solubility of the monomer is preserved
same,Solubility after 24 hours in MeCN,[1],not soluble
COc1ccc(C(OCC2OC(n3cnc4c(NC(=O)c5ccccc5)ncnc43)CC2OP2OC(c3ccccc3)C3CCCN32)(c2ccccc2)c2ccc(OC)cc2)cc1 [L-DNA A],Solubility over 24 hours in MeCN with addition of pyridine,[1],kept in solution; also recorded: the solubility of the monomer is preserved
same,Solubility after 24 hours in MeCN,[1],not sufficient to keep the monomer in solution; also recorded: not soluble
COc1ccc(C(OCC23COC(C(n4cnc5c(NC(=O)c6ccccc6)ncnc54)O2)C3OP2OC(c3ccccc3)C3CCCN32)(c2ccccc2)c2ccc(OC)cc2)cc1 [L-LNA A],Stability in solution,"[2]; MeCN + Et3N (approximately 5-10 eq), after 24 hours",completely stable
same,Stability in solution,"[2]; MeCN + Et3N (approximately 5-10 eq), after 48 hours",the majority of the L-LNA A is preserved
same,Stability in solution,"[2]; MeCN only, after 24 hours, room temperature",most of the L-LNA A was degraded
same,Stability in solution,"[2]; MeCN only, after 48 hours, room temperature",completely degraded
COc1ccc(C(OCC23COC(C(n4cnc5c(=O)[nH]c(N=CN(C)C)nc54)O2)C3OP2OC(c3ccccc3)C3CCCN32)(c2ccccc2)c2ccc(OC)cc2)cc1 [L-LNA G-DMF],Solubility in solvents,"[1]; MeCN, MeCN:DCE, MeCN:Tol, MeCN:acetone, Dioxane, THF",unsoluble
same,Solubility in solvents,"[1]; MeCN:DCM, DMF, DMSO, NMP, DCM, DCE, Toluene",soluble
same,Solubility in acetonitrile solvents,[1]; acetonitrile solvents,poorly soluble
same,Amidite left after 24 hours,"[2]; DCM (best solvent), 24 hours, room temperature",10%
same,Stability in the solvents where the monomer is soluble,"[2]; MeCN:DCM, DMF, DMSO, NMP, DCM, DCE, Toluene, 24 hours",tremendous instability
COc1ccc(C(OC[C@@]23CO[C@@H]([C@H](n4cnc5c(=O)[nH]c(NC(=O)C(C)C)nc54)O2)[C@@H]3O[P@]2O[C@H](c3ccccc3)[C@@H]3CCCN32)(c2ccccc2)c2ccc(OC)cc2)cc1 [L-LNA-G-iBu],Solubility in all solvents investigated,[1]; 12 different solvents,soluble in all solvents investigated
same,Soluble after: 24 h MeCN,"[1]; 24 h, MeCN, 0.013 mmol amidite in 0.13 mL solvent, room temperature",no
